# Active and inactive are the calls of the source.
# Tests used:
# [1] = target: Cytochrome P450 3A4 (Homo sapiens, UniProt P08684);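 further: CYP3A4 tested as one member of a cytochrome P450 panel screen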
# [2] = test system: INS1; test: beta cell apoptosis inhibitors, cytokine rescue, dose response, luminescence, retest (AID 449756); type: functional, cell-based; conditions: Rattus norvegicus;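 further: cell death triggered by IL-1 beta plus TNF-alpha plus IFN-gamma mixture; protective hits raise ATP signal compared with cytokine alone wells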
# [3] = Luminescence Cell-Based Dose Retest to Confirm Inhibitors of Cancer Stem Cells. [Related pubchem assays (depositor defined):AID2717, AID2721]; type: functional; conditions: Homo sapiens
# [4] = test system: Streptococcus sp. 'group A'; test: growth inhibition of control SK(-) GAS strain, dose response, counter-screen for streptokinase expression inhibitor project, luminescence, kanamycin, BacTiterGlo, confirmation (AID 1900); type: functional, organism-based
# [5] = target: T1, Streptokinase A (Streptococcus pyogenes serotype M1, UniProt P10520); test: S. pyogenes streptokinase expression inhibitors, potency, dose response, plasminogen activation absorbance, OD405 (AID 1914); type: functional, Streptococcus pyogenes M1 GAS;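 further: secreted streptokinase activity via plasminogen activation per viability signal from cell pellet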
# T1 sequence (P10520 whole entry): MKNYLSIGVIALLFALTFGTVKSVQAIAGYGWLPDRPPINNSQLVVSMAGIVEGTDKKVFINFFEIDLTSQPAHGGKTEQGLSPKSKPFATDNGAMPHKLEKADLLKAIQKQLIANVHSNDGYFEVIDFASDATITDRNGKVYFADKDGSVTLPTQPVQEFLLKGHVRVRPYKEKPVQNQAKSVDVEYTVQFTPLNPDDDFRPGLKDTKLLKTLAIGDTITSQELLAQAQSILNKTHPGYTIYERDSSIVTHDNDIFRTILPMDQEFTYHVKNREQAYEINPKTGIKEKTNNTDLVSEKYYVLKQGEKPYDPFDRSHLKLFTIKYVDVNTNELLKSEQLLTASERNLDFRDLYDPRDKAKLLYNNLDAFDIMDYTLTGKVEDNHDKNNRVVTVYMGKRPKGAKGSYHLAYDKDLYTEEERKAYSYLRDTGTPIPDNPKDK
# [6] = test system: Streptococcus; test: Group A Streptococcus viability loss, dose response, counter-screen for streptokinase expression inhibitor project, luminescence, BacTiterGlo (AID 1915); type: functional, organism-based;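 further: potency for reduction of bacterial viability or growth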
# [7] = C. albicans growth with fluconazole, confirmation, fluorescence, retest (AID 2467); type: functional, cell-based
# [8] = NIH-3T3 fibroblast cytotoxicity, dose response, cytotoxicity control, cell-based, fluorescence, Alamar Blue, secondary assay (AID 2327); type: functional;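 further: NIH-3T3 mouse fibroblasts cultured with fluconazole at 8 µg/mL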
# [9] = HEp-2 cell cytotoxicity, dose response, cytotoxicity control for RSV inhibitor project, HTS (AID 2410); type: functional; conditions: human respiratory syncytial virus
# [10] = target: Cytochrome P450 2C19 (Homo sapiens, UniProt P33261); test: Cytochrome panel assay with activity outcomes. Panel member name: p450-cyp2c19 Compounds with AC50 equal or less than 10 uM are considered active; type: functional; conditions: read-out: AC50
# [11] = target: T2, Cytochrome P450 1A2 (Homo sapiens, UniProt P05177);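 further: PubChem cytochrome P450 panel assay, CYP1A2 panel member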
# T2 sequence (P05177 whole entry): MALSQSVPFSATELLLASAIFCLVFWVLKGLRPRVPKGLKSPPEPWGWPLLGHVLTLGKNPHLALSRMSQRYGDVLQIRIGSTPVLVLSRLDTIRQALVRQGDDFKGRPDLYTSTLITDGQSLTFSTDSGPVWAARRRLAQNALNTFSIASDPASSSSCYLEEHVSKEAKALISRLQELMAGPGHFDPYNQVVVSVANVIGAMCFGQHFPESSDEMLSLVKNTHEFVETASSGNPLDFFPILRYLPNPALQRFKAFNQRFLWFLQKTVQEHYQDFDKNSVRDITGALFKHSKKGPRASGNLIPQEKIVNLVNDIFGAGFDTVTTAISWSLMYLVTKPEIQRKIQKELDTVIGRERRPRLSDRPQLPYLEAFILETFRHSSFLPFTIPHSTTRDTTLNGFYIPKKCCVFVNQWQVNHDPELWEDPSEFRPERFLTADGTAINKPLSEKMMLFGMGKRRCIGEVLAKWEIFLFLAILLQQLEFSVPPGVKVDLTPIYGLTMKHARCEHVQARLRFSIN
# [12] = inhibitors of intracellular T. cruzi replication, confirmation, NIH3T3 host cells, beta-gal luminescence (AID 2044); type: functional, cell-based;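 further: intracellular parasites grown in NIH/3T3 mouse fibroblasts as host cells; luminescent beta-galactosidase reporter signal from transgenic T. cruzi replicating inside host cells; inhibitors lower the luminescence signal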
# [13] = cytotoxicity toward NIH3T3 fibroblasts, dose response, counter-screen, cell-based, ATP luminescence, mouse fibroblasts (AID 2010); type: functional;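 further: cells exposed to compound for about 90 hours before reading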
# [14] = target: T3, Protein RecA (Mycobacterium tuberculosis, UniProt P9WHJ3); test: Fluorescence Cell-Free Homogeneous Dose Retest to Identify Inhibitors of RecA-Intein Splicing Activity. [Related pubchem assays (depositor defined):AID2097, AID2223, AID489010, AID492950]; type: functional
# T3 sequence (P9WHJ3 whole entry): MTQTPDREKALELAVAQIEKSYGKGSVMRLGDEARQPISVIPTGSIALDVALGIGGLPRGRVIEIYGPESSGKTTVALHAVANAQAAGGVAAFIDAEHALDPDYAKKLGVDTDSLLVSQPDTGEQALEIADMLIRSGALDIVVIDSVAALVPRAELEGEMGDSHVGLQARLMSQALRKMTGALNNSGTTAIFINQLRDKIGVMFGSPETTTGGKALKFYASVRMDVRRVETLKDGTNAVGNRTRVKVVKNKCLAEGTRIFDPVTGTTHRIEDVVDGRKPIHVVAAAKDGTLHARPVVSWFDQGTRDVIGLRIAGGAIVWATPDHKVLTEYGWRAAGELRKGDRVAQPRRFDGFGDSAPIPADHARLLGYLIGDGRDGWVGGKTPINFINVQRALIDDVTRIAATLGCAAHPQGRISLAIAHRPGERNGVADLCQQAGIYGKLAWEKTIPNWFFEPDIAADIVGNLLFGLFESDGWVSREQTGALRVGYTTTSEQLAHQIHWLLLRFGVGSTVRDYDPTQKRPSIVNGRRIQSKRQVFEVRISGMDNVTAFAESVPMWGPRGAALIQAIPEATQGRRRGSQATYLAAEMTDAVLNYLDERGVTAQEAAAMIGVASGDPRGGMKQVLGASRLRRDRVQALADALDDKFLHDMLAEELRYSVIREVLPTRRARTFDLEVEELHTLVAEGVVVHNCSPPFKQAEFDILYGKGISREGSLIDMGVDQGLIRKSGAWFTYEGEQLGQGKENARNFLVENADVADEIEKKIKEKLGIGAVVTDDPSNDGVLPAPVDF
# Chain of Cytochrome P450 3A4 (P08684 whole entry): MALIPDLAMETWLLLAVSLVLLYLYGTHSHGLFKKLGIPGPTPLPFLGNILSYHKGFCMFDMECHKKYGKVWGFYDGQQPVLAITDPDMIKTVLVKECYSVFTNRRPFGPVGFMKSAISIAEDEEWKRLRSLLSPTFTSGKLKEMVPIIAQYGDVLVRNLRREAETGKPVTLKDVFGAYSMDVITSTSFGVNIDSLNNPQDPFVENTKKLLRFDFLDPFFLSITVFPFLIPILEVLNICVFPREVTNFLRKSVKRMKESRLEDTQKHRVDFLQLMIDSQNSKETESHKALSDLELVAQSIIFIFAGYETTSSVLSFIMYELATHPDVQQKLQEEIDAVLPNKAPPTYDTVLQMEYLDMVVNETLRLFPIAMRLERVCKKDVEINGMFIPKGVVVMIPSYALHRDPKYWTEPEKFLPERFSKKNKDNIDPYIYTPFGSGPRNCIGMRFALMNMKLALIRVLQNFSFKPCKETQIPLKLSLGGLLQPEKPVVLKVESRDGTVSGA
# Chain of Cytochrome P450 2C19 (P33261 whole entry): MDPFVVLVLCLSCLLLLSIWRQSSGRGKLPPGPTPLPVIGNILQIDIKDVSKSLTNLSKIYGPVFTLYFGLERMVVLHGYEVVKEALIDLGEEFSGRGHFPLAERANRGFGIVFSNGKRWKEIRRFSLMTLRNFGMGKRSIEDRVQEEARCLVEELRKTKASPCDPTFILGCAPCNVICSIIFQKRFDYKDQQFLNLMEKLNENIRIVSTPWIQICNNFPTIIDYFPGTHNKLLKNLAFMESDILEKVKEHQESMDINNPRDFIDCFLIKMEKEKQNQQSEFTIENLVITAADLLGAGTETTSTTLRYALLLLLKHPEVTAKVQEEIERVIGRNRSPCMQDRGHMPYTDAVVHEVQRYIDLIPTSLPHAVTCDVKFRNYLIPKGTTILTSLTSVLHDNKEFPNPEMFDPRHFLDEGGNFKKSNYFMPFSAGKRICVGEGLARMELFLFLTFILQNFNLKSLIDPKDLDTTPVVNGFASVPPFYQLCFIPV
smiles,measurement,setting,value
COc1ccc(NC(=O)N2CCCC3(CCN(C(=O)c4cccc(F)c4)CC3)C2)cc1,AC50,[1],15.8 µM (inconclusive)
O=C(CC1CC2CCC1C2)NCCc1ccc(Cl)cc1 (stereo not drawn),AC50,[2],> 260 µM (inactive)
CCCC(O)(c1ccc(Cl)cc1)C(CN1CCOCC1)c1ccc(Cl)cc1 (stereo not drawn),AC50,[3],6 µM (active)
O=C(Nc1ccc(F)cc1)N1CCCCCC1,EC50,[4],> 150 µM (not active)
same,EC50,[5],> 150 µM (not active)
same,EC50,[6],> 150 µM (not active)
O=C(NC(=S)Nc1cccc(-c2ccc(CO)o2)c1)c1cccs1,EC50,[4],23.1 µM (active)
same,EC50,[5],> 150 µM (not active)
same,EC50,[6],68.4 µM (active)
O=C1NN(c2ccc(F)cc2)C(=O)/C1=C/c1cccs1,EC50,[7],> 38 µM (not active)
same,EC50,[8],> 160 µM (inactive)
CCn1nnnc1NC(=O)c1cc(Cl)c(OC)c(Cl)c1,EC50,[7],2.51 µM (active)
same,EC50,[8],> 160 µM (inactive)
Cc1cc(OCc2nc(-c3ccc(NC(=O)c4cccnc4)cc3)no2)ccc1Cl,CC50,[9],> 50 µM (active)
same,AC50,[2],0.624 µM (active)
Cc1ccc(NC(S)=NC2CCCC2)cc1,AC50,[1],10 µM (inconclusive)
NS(=O)(=O)Cc1noc2ccccc12,AC50,[1],31.6 µM (inconclusive)
CC1(C)CC[C@]2(CO)CC[C@]3(C)C(=CCC4[C@@]5(C)CC[C@H](O)[C@@](C)(CO)C5CC[C@]43C)[C@@H]2C1 (stereo partly drawn),AC50,[3],3.13 µM (active)
COc1ccc(N2C(=O)NC3CC2(C)Oc2ccccc23)cc1OC (stereo not drawn),AC50,[10],7.94 µM (inconclusive)
same,AC50,[1],22.4 µM (inconclusive)
Cc1cc2nc(C3CCCN(C(S)=Nc4ccccc4)C3)[nH]c2cc1C (stereo not drawn),AC50,[11],1.58 µM (inconclusive)
same,AC50,[10],7.08 µM (inconclusive)
same,AC50,[1],0.141 µM (inconclusive)
O=c1c2cc(Br)ccc2nc(-c2ccccc2)n1O,EC50,[7],1.99 µM (active)
same,EC50,[8],70.4 µM (active)
COc1ccc(CNC(=O)Cc2csc(NC(=O)Nc3ccccc3OC)n2)cc1,EC50,[4],> 150 µM (not active)
same,EC50,[5],> 150 µM (not active)
same,EC50,[6],> 150 µM (not active)
CCCC(=O)N1c2ccccc2C(N(C(C)=O)c2ccccc2)CC1C (stereo not drawn),AC50,[1],0.891 µM (inconclusive)
O=C(Nc1ccc(O)cc1)c1ccc(NC(=O)c2cccs2)cc1,AC50,[3],3.51 µM (active)
CC(C)C(=O)NC(c1ccccc1)c1cc([N+](=O)[O-])c2cccnc2c1O (stereo not drawn),EC50,[4],2.12 µM (active)
same,EC50,[5],> 150 µM (not active)
same,EC50,[6],2.98 µM (active)
same,AC50,[2],6.59 µM (active)
same,AC50,[3],1.27 µM (active)
COc1ccc(CNc2cc(-c3ccccc3CN(C)C)ncn2)c(OC)c1,AC50,[11],15.8 µM (inconclusive)
same,AC50,[1],15.8 µM (inconclusive)
O=C(Nc1ccccc1)N1CC[C@@]2(CCCN(C(=O)c3ccncc3)C2)C1,AC50,[1],15.8 µM (inconclusive)
CCN(CC)CCN(C(=O)C1=COCCO1)c1nc2cc(C)cc(C)c2s1,EC50,[4],> 150 µM (not active)
same,EC50,[5],> 150 µM (not active)
same,EC50,[6],> 150 µM (not active)
C/C(=N/NC(=O)c1cc(-c2ccccc2)nc2c(Cl)cccc12)c1cccnc1,EC50,[4],> 150 µM (not active)
same,EC50,[5],25.9 µM (inconclusive)
same,EC50,[6],> 150 µM (not active)
Cc1ccc(N=Nc2c(N)nn3c(O)c4c(nc23)CCCC4)cc1,AC50,[1],7.94 µM (inconclusive)
COCc1ccc(O)c2ncccc12,AC50,[2],5 µM (active)
CC(COc1ccc(C(C)C)cc1)NC(=O)c1ccc(Br)o1 (stereo not drawn),EC50,[4],45.6 µM (active)
same,EC50,[5],> 150 µM (not active)
same,EC50,[6],> 150 µM (not active)
CSc1ccc(C2=CC(=O)C[C@H](c3ccc(Cl)cc3)C2)cc1,AC50,[3],1.7 µM (active)
CCc1c(C)sc2nc(C(C)C)nc(SCC(=O)N3CCc4ccccc4C3)c12,EC50,[4],9.77 µM (active)
same,EC50,[5],2.38 µM (active)
same,EC50,[6],15.1 µM (active)
same,AC50,[2],1.94 µM (active)
same,AC50,[3],4.63 µM (active)
O=C1NC[C@@H](Cc2cccc3ccccc23)N(CCCCC2CCCCC2)C1=O,EC50,[4],3.38 µM (active)
same,EC50,[6],7.07 µM (active)
same,AC50,[3],3.84 µM (active)
CCC(C)n1c(-c2cccs2)nc2nc3ccccc3nc21 (stereo not drawn),AC50,[3],2.73 µM (active)
COc1ccc(NC(=O)N2CCCC3(CCN(C(=O)c4cc(C(F)(F)F)cc(C(F)(F)F)c4)CC3)C2)cc1,AC50,[1],10 µM (inconclusive)
Cc1ccccc1-c1ccnc2[nH]n(-c3ccccc3)c(=O)c12,EC50,[7],> 38 µM (not active)
same,EC50,[8],> 160 µM (inactive)
Cc1[nH]n(-c2ccccc2)c(=O)c1/C=C1/C(=O)NN(c2ccc(F)cc2)C1=O,AC50,[3],4.08 µM (active)
COc1cc(/C=C(\C#N)c2ccccn2)ccc1OCC(=O)Nc1ccc(Br)cc1,AC50,[3],1.71 µM (active)
Oc1ccc(Oc2ccc(Oc3ccc(O)cc3)cc2)cc1,EC50,[4],8.4 µM (active)
same,EC50,[5],> 150 µM (not active)
same,EC50,[6],18.4 µM (active)
CC(C)N=C(S)NC(c1ccccc1)(c1ccccc1)c1ccccc1,EC50,[4],6.6 µM (active)
same,EC50,[6],> 150 µM (not active)
same,AC50,[2],8.18 µM (active)
same,EC50,[12],3.99 µM (active)
same,EC50,[13],> 60 µM (not active)
CCN=C(S)N1N=C2c3ccccc3CCC2C1c1ccc(F)cc1 (stereo not drawn),AC50,[3],1.46 µM (active)
CC1=NN(c2cccc(Cl)c2)C(=O)C12CC(C)=C(C)CS2 (stereo not drawn),EC50,[14],13.2 µM (active)
COc1ccc(-c2csc(N(CC3CCCO3)C(=O)c3ccco3)n2)cc1 (stereo not drawn),EC50,[7],> 38 µM (not active)
same,EC50,[8],> 160 µM (inactive)
O=C1CCCC=C1[C@H](CCc1ccccc1)OC(=O)c1ccc(Br)cc1,AC50,[1],5.01 µM (inconclusive)
COc1cc(/C=N/Nc2nc(Nc3ccccc3)nc(-n3nc(C)cc3C)n2)cc(OC)c1OC,EC50,[4],5.1 µM (active)
same,EC50,[5],> 150 µM (not active)
same,EC50,[6],13.8 µM (active)
same,EC50,[12],0.737 µM (active)
same,EC50,[13],7.23 µM (active)
same,AC50,[3],3.63 µM (active)

# Source: ChEMBL document CHEMBL1201862, “PubChem BioAssay data set” (2004)
